Source: patent US20230279061A1, “ISOLATED PEPTIDE FOR A PEPTIDE COACERVATE, AND METHODS OF USE THEREOF” (NANYANG TECHNOLOGICAL UNIVERSITY, priority 2020, published 2023)
Where a SMILES comes first, the peptide text is derived from it. Where no end group is shown, it is not given here. The star is where a group is joined. X1 = O=C(OCCSSCCOC(=O)*)c1ccccc1; X2 = CC(=O)OCCSSCCOC(=O)*

Key:
HepG2 cells [1] = experiment: MTT cytotoxicity assay; type: cell-based; details: for cytotoxicity of coacervates with luciferase-encoding mRNA: optimal concentration, HepG2 (FIG. 10C); for cytotoxicity of peptide alone: free peptide, HepG2
Procedure: (§1) The cytotoxicity of the therapeutics-loaded or pristine peptide coacervates was evaluated by using the methylthiazolyldiphenyl-tetrazolium bromide (MTT) assay. Following literature protocols (Chang, H. et al., Nano Letters, 2017, 17, 1678; Sun, Y. et al. Biomat., 2017, 117, 77), 10^4 of HepG2 or HEK293 cells in 100 µL of media (DMEM, 10% FBS, antibiotics) were transferred into 96-wells plates and incubated for 24 hours. Then, the media were replaced with 100 µL of Opti-MEM containing therapeutics-loaded coacervates (various concentration of therapeutics, 1 mg/mL HBpep-SP) or various concentrations of pristine coacervate suspensions. After 4 hours of uptake, the media were removed and the cells were washed by PBS twice before adding 100 µL of media (DMEM, 10% FBS, antibiotics). The cells were incubated for another 20 hours before 10 µL of 5 mg/mL MTT dissolved in PBS was added. The media were removed after 4 hours of incubation with MTT, and the cells were washed by PBS twice. After that, 100 µL of DMSO per well was added for absorbance measurements at 570 nm using a microplate reader (Infinite M200 Pro, Tecan, Switzerland). The relative cell viability was calculated as: […]
(§2) where At, Ab, and Ac represent the absorbance of tested cells, control cells and no cell, respectively.

HEK293 cells = experiment: MTT cytotoxicity assay; type: cell-based; details: optimal concentration, HEK293 (FIG. 10D)
Procedure: as §1, §2

[2] = Optical/fluorescence microscopy of coacervates; type: physicochemical; details: near-physiological conditions
Procedure: Optical and fluorescence microcopy images of HBpep-SP coacervates and fluorescence image of macromolecules-loaded HBpep-SP coacervates were taken using an invert fluorescence microscope (AxioObserver.Z1, Zeiss, Germany). Dynamic light scattering (DLS, ZetaPALS, Brookhaven, USA) system was employed to measure the size of pristine HBpep-SR coacervates and macromolecules-loaded HBpep-SR coacervates. The fresh prepared pristine or macromolecules-loaded coacervates (with or without 0.1 mg/mL of macromolecules, 1 mg/mL of modified peptides) was diluted into PBS with a volume ratio of 1 : 9.0 before the DLS test.

[3] = Turbidity measurement of phase separation (coacervation) at various pH; type: physicochemical
From the text: The phase separation behavior of HBpep-K and HBpep-SR peptides at various pH was monitored turbidity measurements using a UV-Vis spectrometer (UV-2501PC, Shimadzu, Japan). The absorbance at 600 nm (A600) was used to calculate the relative turbidity (Lim, Z.W. et al., Bioconjugate Chem., 2018, 29, 2176) as: […]

HepG2 cells [4] = experiment: Delivery of proteins and peptides into cells (fluorescence microscopy); type: cell-based; details: free form, not recruited in coacervates
Procedure: (§3) For protein delivery into cells, 10^5 of cells were suspended in 1 mL of Dulbecco’s modified Eagle medium (DMEM) supplemented with 10% of fetal bovine serum, 100 units/mL of penicillin and 100 µg/mL of streptomycin, and then transferred into […] culture dishes. After 24 hours of incubation at 37° C. with 5% of CO2, the media was replaced with 900 µL of Opti-MEM. Then, 100 µL of freshly prepared protein-loaded HBpep-SA or HBpep-SP coacervate suspensions (0.1 mg/mL of cargos, 1 mg/mL of modified peptides) were added into the media. After 4 hours of incubation, the media was removed and the cells were washed with PBS twice before adding 1 mL of fresh media (DMEM, 10% FBS, antibiotics). The cells were incubated for another 20 hours and then washed twice at pH 5.0 in phosphate buffer to remove any coacervates that had not entered the cells, before being imaged under the fluorescence microscope (AxioObserver.Z1, Zeiss, Germany).

HepG2 cells [5] = experiment: X-Gal staining of cells after β-Gal delivery; type: cell-based; details: 24 hours
Procedure: as §3
To further confirm the versatility of the HBpep-SR peptide coacervate delivery system, β-Gal, a very high MW enzyme (MW = 430 kDa) was selected to be recruited into the HBpep-SP peptide coacervate. Intracellular delivery of β-Gal is challenging because of the difficulty in forming complexes with common nanocarriers owing to its high MW (Mitragotri, S. et al., Nat. Reviews Drug Disc., 2014, 13, 655).

With `CC(=O)OCCSSCCOC(=O)NCCCC[C@H](NC(=O)[C@H](Cc1ccc(O)cc1)NC(=O)[C@@H]1CCCN1C(=O)CNC(=O)[C@H](Cc1c[nH]cn1)NC(=O)CNC(=O)[C@H](Cc1ccc(O)cc1)NC(=O)[C@@H](NC(=O)CNC(=O)[C@H](Cc1c[nH]cn1)NC(=O)CNC(=O)[C@H](Cc1ccc(O)cc1)NC(=O)[C@@H](NC(=O)CNC(=O)[C@H](Cc1c[nH]cn1)NC(=O)CN)C(C)C)C(C)C)C(=O)NCC(=O)N[C@@H](Cc1c[nH]cn1)C(=O)NCC(=O)N1CCC[C@H]1C(=O)N[C@@H](Cc1ccc(O)cc1)C(=O)NCC(=O)N[C@@H](Cc1c[nH]cn1)C(=O)NCC(=O)N[C@@H](CC(C)C)C(=O)N[C@@H](Cc1ccc(O)cc1)C(=O)N[C@@H](Cc1c[nH]c2ccccc12)C(=O)O` [HBpep-SA] (H-GHGVYGHGVYGHGPYK(X2)GHGPYGHGLYW-OH) the “cytotoxicity of coacervates with luciferase-encoding mRNA” value (shortened to “cytotoxicity of coacervates”) (HepG2 cells [1]) was “neither HBpep-SA nor HBpep-SP peptide coacervates with luciferase-encoding mRNA caused cytotoxicity”, the “cytotoxicity of coacervates” value (HEK293 cells) was “neither HBpep-SA nor HBpep-SP peptide coacervates with luciferase-encoding mRNA caused cytotoxicity” and the “stability of coacervate microdroplets” value [2] was “formed stable microdroplets at near-physiological conditions”.
For “GHGVY GHGVY GHGPY K GHGPY GHGLY W (GHGVYGHGVYGHGPYKGHGPYGHGLYW; HBpep derivative) [HBpep-K, HBpep with a single lysine residue inserted at position 16]”, the “phase state at neutral pH” value ([3]; neutral pH) was “reverts to the single phase” and the “pH at which the peptide phase separates” value ([3]; turbidity at various pH) was 9.0 pH.
For “AVPIAQK [Smac, AVPIAQK, reference compound]”, the “cytotoxicity of peptide alone” value (HepG2 cells [1]) was “negligible cytotoxicity”.
With “KLAKLAK KLAKLAK (KLAKLAKKLAKLAK) [PAD, proapoptotic domain peptide, reference compound]” the “cytotoxicity of peptide alone” value (HepG2 cells [1]) was “negligible cytotoxicity”.
With “lysozyme: Alexa Fluor 488-labeled lysozyme, cargo protein” the “internalization / crossing of the cell membrane by free cargo” value (HepG2 cells [4]) was “neither lysozyme (FIGS. 8E, 8F) nor BSA (FIGS. 8G, 8H) were internalized by HepG2 cells”.
With `CC(C)C[C@H](NC(=O)CNC(=O)[C@H](Cc1c[nH]cn1)NC(=O)CNC(=O)[C@H](Cc1ccc(O)cc1)NC(=O)[C@@H]1CCCN1C(=O)CNC(=O)[C@H](Cc1c[nH]cn1)NC(=O)CNC(=O)[C@H](CCCCNC(=O)OCCSSCCOC(=O)c1ccccc1)NC(=O)[C@H](Cc1ccc(O)cc1)NC(=O)[C@@H]1CCCN1C(=O)CNC(=O)[C@H](Cc1c[nH]cn1)NC(=O)CNC(=O)[C@H](Cc1ccc(O)cc1)NC(=O)[C@@H](NC(=O)CNC(=O)[C@H](Cc1c[nH]cn1)NC(=O)CNC(=O)[C@H](Cc1ccc(O)cc1)NC(=O)[C@@H](NC(=O)CNC(=O)[C@H](Cc1c[nH]cn1)NC(=O)CN)C(C)C)C(C)C)C(=O)N[C@@H](Cc1ccc(O)cc1)C(=O)N[C@@H](Cc1c[nH]c2ccccc12)C(=O)O` [HBpep-SP] (H-GHGVYGHGVYGHGPYK(X1)GHGPYGHGLYW-OH) the “cytotoxicity of coacervates” value (HepG2 cells [1]) was “neither HBpep-SA nor HBpep-SP peptide coacervates with luciferase-encoding mRNA caused cytotoxicity”, the “cytotoxicity of coacervates” value (HEK293 cells) was “neither HBpep-SA nor HBpep-SP peptide coacervates with luciferase-encoding mRNA caused cytotoxicity” and the “stability of coacervate microdroplets” value [2] was “formed stable microdroplets at near-physiological conditions”.
For β-Gal, the “X-Gal staining (β-Gal activity in cells)” value (HepG2 cells [5]) was “no blue pigment formation”.
